# Measured values as given in ChEMBL document CHEMBL1201862, “PubChem BioAssay data set” (2004).
#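 Dose response: 5 concentrations. Exposure: 48 h. Format: 96-well plates. Endpoint: linear interpolation; highest concentration if not reached. The concentration for 50% growth inhibition is given as GI50.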 Activity calls are given as the source filed them. Cut-off read from the data, not from the text of the source: active = GI50 up to about 1.1 µM and inactive = higher.
# Columns and labels:
# Assay in all cases: NCI-60 cell line screen, 48 h
# COLO 205 = system: COLO 205
# NCI-H226 = system: NCI-H226
# EKVX = system: EKVX
# LOX IMVI = system: LOX IMVI
# XF498 = system: XF498
# UACC-257 = system: UACC-257
# SW-620 = system: SW-620
# HCT-116 = system: HCT-116
# SK-MEL-2 = system: SK-MEL-2
# MOLT-4 = system: MOLT-4
# A549 = system: A549
# SNB-78 = system: SNB-78
# TK-10 = system: TK-10
# CCRF-CEM = system: CCRF-CEM
# U-251 = system: U-251
# Malme-3M = system: Malme-3M
# HOP-62 = system: HOP-62
# M14 = system: M14
# HCT-15 = system: HCT-15
# HOP-18 = system: HOP-18
# UO-31 = system: UO-31
# DLD-1 = system: DLD-1
# HCC 2998 = system: HCC 2998
# CAKI-1 = system: CAKI-1
# SF-295 = system: SF-295
# A498 = system: A498
# KM12 = system: KM12
# SR = system: SR
# DMS-114 = system: DMS-114
# LXFL 529 = system: LXFL 529
# UACC-62 = system: UACC-62
# NCI-H522 = system: NCI-H522
# SK-MEL-28 = system: SK-MEL-28
# SK-MEL-5 = system: SK-MEL-5
# OVCAR-3 = system: OVCAR-3
# SF-268 = system: SF-268
# SNB-75 = system: SNB-75
# RXF 393 = system: RXF 393
# SN12C = system: SN12C
# DMS-273 = system: DMS-273
# HL-60 = system: HL-60
# OVCAR-5 = system: OVCAR-5
# OVCAR-8 = system: OVCAR-8
# ACHN = system: ACHN
# NCI-H460 = system: NCI-H460
# 786-0 = system: 786-0
# SF-539 = system: SF-539
# K562 = system: K562
# RPMI-8226 = system: RPMI-8226
# HT-29 = system: HT-29
# KM-20L2 = system: KM-20L2
# SNB-19 = system: SNB-19
# IGROV-1 = system: IGROV-1
# SK-OV-3 = system: SK-OV-3
# M19-MEL = system: M19-MEL
# NCI-H23 = system: NCI-H23
# HOP-92 = system: HOP-92
# OVCAR-4 = system: OVCAR-4
# RXF 631 = system: RXF 631
structure (smiles),measurement,setting,value
O=C1C(Cl)C(c2cc(Br)ccc2O)N1n1cnc2ccccc2c1=O (configuration not stated),GI50,COLO 205,27.7 µM (inactive)
same,GI50,NCI-H226,6.87 µM (inactive)
same,GI50,EKVX,3.4 µM (inactive)
same,GI50,LOX IMVI,6.64 µM (inactive)
same,GI50,XF498,28.5 µM (inactive)
same,GI50,UACC-257,10.5 µM (inactive)
same,GI50,SW-620,10 µM (inactive)
same,GI50,HCT-116,5.96 µM (inactive)
same,GI50,SK-MEL-2,22.1 µM (inactive)
same,GI50,MOLT-4,2.75 µM (inactive)
same,GI50,A549,26.9 µM (inactive)
same,GI50,SNB-78,30.9 µM (inactive)
same,GI50,TK-10,31.8 µM (inactive)
same,GI50,CCRF-CEM,3.28 µM (inactive)
same,GI50,U-251,10.7 µM (inactive)
same,GI50,Malme-3M,20.5 µM (inactive)
same,GI50,HOP-62,13.7 µM (inactive)
same,GI50,M14,11.3 µM (inactive)
same,GI50,HCT-15,5.13 µM
same,GI50,HOP-18,6.3 µM (inactive)
same,GI50,UO-31,7.4 µM (inactive)
same,GI50,DLD-1,15.6 µM (inactive)
same,GI50,HCC 2998,17.4 µM (inactive)
same,GI50,CAKI-1,21.3 µM (inactive)
same,GI50,SF-295,16.8 µM (inactive)
same,GI50,A498,65.8 µM (inactive)
same,GI50,KM12,20.7 µM (inactive)
same,GI50,SR,2.74 µM (inactive)
same,GI50,DMS-114,5.46 µM (inactive)
same,GI50,LXFL 529,17.1 µM (inactive)
same,GI50,UACC-62,11.5 µM (inactive)
same,GI50,NCI-H522,13.2 µM (inactive)
same,GI50,SK-MEL-28,14.1 µM (inactive)
same,GI50,SK-MEL-5,16.8 µM (inactive)
same,GI50,OVCAR-3,6.93 µM (inactive)
same,GI50,SF-268,2.53 µM (inactive)
same,GI50,SNB-75,15.2 µM (inactive)
same,GI50,RXF 393,28.9 µM (inactive)
same,GI50,SN12C,20 µM (inactive)
same,GI50,DMS-273,15.7 µM (inactive)
same,GI50,HL-60,1.72 µM (inactive)
same,GI50,OVCAR-5,28.5 µM (inactive)
same,GI50,OVCAR-8,12.1 µM (inactive)
same,GI50,ACHN,11.8 µM (inactive)
same,GI50,NCI-H460,6.62 µM (inactive)
same,GI50,786-0,17.3 µM (inactive)
same,GI50,SF-539,18.5 µM (inactive)
same,GI50,K562,5.27 µM (inactive)
same,GI50,RPMI-8226,5.4 µM (inactive)
same,GI50,HT-29,30.5 µM (inactive)
same,GI50,KM-20L2,22.2 µM (inactive)
same,GI50,SNB-19,14.5 µM (inactive)
same,GI50,IGROV-1,17.5 µM (inactive)
same,GI50,SK-OV-3,20 µM (inactive)
same,GI50,M19-MEL,10.7 µM (inactive)
same,GI50,NCI-H23,16.5 µM (inactive)
same,GI50,HOP-92,15.7 µM (inactive)
same,GI50,OVCAR-4,10.7 µM (inactive)
FC(F)(F)c1cc(C2SCc3nc4ccccc4n32)cc(C(F)(F)F)c1 (configuration not stated),GI50,NCI-H226,6.41 µM (inactive)
same,GI50,XF498,8.45 µM (inactive)
same,GI50,UACC-257,> 100 µM (inactive)
same,GI50,MOLT-4,2.97 µM (inactive)
same,GI50,SNB-78,36.7 µM (inactive)
same,GI50,TK-10,> 100 µM (inactive)
same,GI50,CCRF-CEM,4.51 µM (inactive)
same,GI50,Malme-3M,2.92 µM (inactive)
same,GI50,HOP-62,5.5 µM (inactive)
same,GI50,UO-31,> 100 µM (inactive)
same,GI50,CAKI-1,4.24 µM (inactive)
same,GI50,SF-295,5 µM (inactive)
same,GI50,A498,> 100 µM (inactive)
same,GI50,KM12,4.68 µM (inactive)
same,GI50,LXFL 529,> 100 µM (inactive)
same,GI50,UACC-62,3.87 µM (inactive)
same,GI50,SF-268,44.9 µM (inactive)
same,GI50,RXF 393,14.8 µM (inactive)
same,GI50,SN12C,2.9 µM (inactive)
same,GI50,DMS-273,3.65 µM (inactive)
same,GI50,HL-60,3.87 µM (inactive)
same,GI50,OVCAR-5,> 100 µM (inactive)
same,GI50,OVCAR-8,10.3 µM (inactive)
same,GI50,ACHN,> 100 µM (inactive)
same,GI50,RXF 631,10.6 µM (inactive)
same,GI50,786-0,11.4 µM (inactive)
same,GI50,SF-539,24.6 µM (inactive)
same,GI50,K562,2.97 µM (inactive)
same,GI50,HT-29,3.46 µM (inactive)
same,GI50,KM-20L2,3.37 µM (inactive)
same,GI50,SNB-19,76 µM (inactive)
same,GI50,IGROV-1,8.13 µM (inactive)
same,GI50,SK-OV-3,20.5 µM (inactive)
same,GI50,HOP-92,20.4 µM (inactive)
same,GI50,OVCAR-4,> 100 µM (inactive)
CC(C)(C)c1cc2c3c(c1)C(C(F)(F)F)(C(F)(F)F)O[Te]3(C)OC2(C(F)(F)F)C(F)(F)F,GI50,COLO 205,> 100 µM (inactive)
same,GI50,NCI-H226,> 100 µM (inactive)
same,GI50,EKVX,> 100 µM (inactive)
same,GI50,LOX IMVI,> 100 µM (inactive)
same,GI50,XF498,> 100 µM (inactive)
same,GI50,UACC-257,> 100 µM (inactive)
same,GI50,SW-620,> 100 µM (inactive)
same,GI50,HCT-116,> 100 µM (inactive)
same,GI50,SK-MEL-2,> 100 µM (inactive)
same,GI50,MOLT-4,> 100 µM (inactive)
same,GI50,A549,> 100 µM (inactive)
same,GI50,SNB-78,> 100 µM (inactive)
same,GI50,TK-10,> 100 µM (inactive)
same,GI50,CCRF-CEM,> 100 µM (inactive)
same,GI50,U-251,> 100 µM (inactive)
same,GI50,Malme-3M,> 100 µM (inactive)
same,GI50,HOP-62,> 100 µM (inactive)
same,GI50,M14,> 100 µM (inactive)
same,GI50,HCT-15,> 100 µM
same,GI50,HOP-18,> 100 µM (inactive)
same,GI50,UO-31,> 100 µM (inactive)
same,GI50,DLD-1,> 100 µM (inactive)
same,GI50,HCC 2998,> 100 µM (inactive)
same,GI50,CAKI-1,> 100 µM (inactive)
same,GI50,SF-295,> 100 µM (inactive)
same,GI50,KM12,> 100 µM (inactive)
same,GI50,SR,> 100 µM (inactive)
same,GI50,DMS-114,> 100 µM (inactive)
same,GI50,LXFL 529,> 100 µM (inactive)
same,GI50,UACC-62,> 100 µM (inactive)
same,GI50,NCI-H522,> 100 µM (inactive)
same,GI50,SK-MEL-28,> 100 µM (inactive)
same,GI50,OVCAR-3,> 100 µM (inactive)
same,GI50,SF-268,> 100 µM (inactive)
same,GI50,RXF 393,> 100 µM (inactive)
same,GI50,SN12C,> 100 µM (inactive)
same,GI50,DMS-273,> 100 µM (inactive)
same,GI50,HL-60,> 100 µM (inactive)
same,GI50,OVCAR-5,> 100 µM (inactive)
same,GI50,OVCAR-8,> 10 µM (inactive)
same,GI50,ACHN,> 100 µM (inactive)
same,GI50,NCI-H460,> 100 µM (inactive)
same,GI50,786-0,> 100 µM (inactive)
same,GI50,SF-539,> 100 µM (inactive)
same,GI50,K562,> 100 µM (inactive)
same,GI50,RPMI-8226,> 100 µM (inactive)
same,GI50,HT-29,> 100 µM (inactive)
same,GI50,KM-20L2,> 100 µM (inactive)
same,GI50,SNB-19,> 100 µM (inactive)
same,GI50,IGROV-1,> 100 µM (inactive)
same,GI50,SK-OV-3,> 100 µM (inactive)
same,GI50,M19-MEL,> 100 µM (inactive)
same,GI50,NCI-H23,> 100 µM (inactive)
same,GI50,OVCAR-4,> 100 µM (inactive)
